{"source": "patent US10813886B2", "about": "“Methods and systems for improved bioavailability of active pharmaceutical ingredients including esomeprazole” (priority 2013, dated 2020)", "key": {"[1]": {"conditions": "cited from earlier work"}, "[2]": {"conditions": "as the magnesium trihydrate, cited from earlier work"}, "[3]": {"conditions": "human, in vivo", "description": "Patients were selected from volunteers aged 18 to 65 years, inclusive, with a Body Mass Index (BMI) between […] inclusive and free from any significant diseases including cardiac, renal and gastrointestinal disease. […] The crossover design eliminated potential treatment effects on the outcome, as well as effectively allowing the subject to serve as their own control. Each dosing occasion was separated by a 7-14 day washout period. Fasting conditions represented an overnight fast of at least 10 hours and fed state was after a high calorie, high fat breakfast 30 minutes prior to dosing.\nThe % EMT was quantified from human plasma according to methods based on the FDA Bioanalytical Method Validation Guide for Industry and the EMA Guideline on bioanalytical method validation (York Bioanalytical Solutions). Briefly, plasma samples were submitted to supported liquid extraction and liquid chromatography with tandem mass spectrometric detection (lower limit of quantification 5.00 ng/ml with a sample aliquot volume of 100 microliters). The analytes detected were esomeprazole, 5-hydroxyomeprazole, and omeprazole sulphone and were validated against commercial samples and calibration standards. […] Calibration samples were obtained commercially as follows: esomeprazole (Sigma-Aldrich), 5-hydroxyomeprazole, and omeprazole sulphone (Toronto Chemicals Inc.). Internal standards omeprazole d3, 5-hydroxyomeprazole d3 and omeprazole sulphone-d3 were also utilized (Toronto Chemicals Inc.). Plasma samples were stored at −20° C. Data was collected using Analyst software (Applied Biosystems-Sciex) in combination with Watson LIMS (Thermo Fisher Scientific); peak area ratios were used to generate calibration curves using regression functions."}}}
{"smiles": "COc1ccc2nc([S@@+]([O-])Cc3ncc(C)c(OC)c3C)[nH]c2c1", "note": "[Esomeprazole]", "values": [{"measurement": "stability in acid conditions", "setting": "[1]; acid conditions", "result": "degrades"}, {"measurement": "stability at pH 6.8", "setting": "[1]; pH 6.8", "result": "stable"}, {"measurement": "solubility in heptane", "setting": "[2]", "result": "insoluble"}, {"measurement": "solubility in water", "setting": "[2]; in water at 25° C.", "result": 1500, "unit": "µg/mL"}, {"measurement": "Intra-subject Coefficient of Variation of AUCinf", "setting": "[3]", "result": 40.85, "unit": "CV %"}, {"measurement": "Intra-subject Coefficient of Variation of AUCt", "setting": "[3]", "result": 83.08, "unit": "CV %"}, {"measurement": "Intra-subject Coefficient of Variation of Cmax", "setting": "[3]", "result": 97.51, "unit": "CV %"}]}
